Results on 19 compounds are retold here after patent US20150141381A1, “TETRACYCLINE COMPOUNDS HAVING TARGET THERAPEUTIC ACTIVITIES” (Paratek Pharmaceuticals, Inc., priority 2001, published 2015).

Where two headings read alike, the source gives them in different places.

Assay [1] deals with S. aureus RN450. Kind of assay: In Vitro Anti-Bacterial Activity Assay (MIC), gram positive. The class given is cell-based. Particulars: Staphylococcus aureus, RN450, 18 h.
Assay [2] deals with E. coli mL308 225. Kind of assay: In Vitro Anti-Bacterial Activity Assay (MIC), gram negative. The class given is cell-based. The note with it: Escherichia coli, ML308225, 18 h.
[3] abbreviates: MIC class, Table 3 (Continued), read-out: Gram+ activity.
[4] abbreviates: MIC class, Table 3 (Continued), read-out: Gram− activity.
Setting [5] is: gram positive bacteria, read-out: Antibiotic Activity Gram + (MIC).
Setting [6] is: gram negative bacteria, read-out: Antibiotic Activity Gram − (MIC).
Where [7] appears, read: MIC class, Table 3, read-out: Antibiotic Activity Gram +.
Setting [8] is: MIC class, Table 3, read-out: Antibiotic Activity Gram −.

As for `CCCC(=O)C[C@@H]1[C@H]2[C@H](N(C)C)C(O)=C(C(N)=O)C(=O)[C@@]2(O)C(O)=C2C(=O)c3c(O)cccc3C(C)[C@H]21` (some centres unmarked), the MIC in assay [1] (setting [3]) and in assay [2] (setting [4]) was less than 4 µg/mL in each case.
On to `CN(C)c1cc(CCCNS(C)(=O)=O)c(O)c2c1C[C@H]1C[C@H]3[C@H](N(C)C)C(O)=C(C(N)=O)C(=O)[C@@]3(O)C(O)=C1C2=O`, for which the MIC in assay [1] (setting [5]) and in assay [2] (setting [6]) was greater than 4 µg/mL in each case.
Take `COC(=O)C(=O)Nc1ccc(-c2ccc(O)c3c2C[C@H]2C[C@H]4[C@H](N(C)C)C(O)=C(C(N)=O)C(=O)[C@@]4(O)C(O)=C2C3=O)cc1`: the figures for the MIC in assay [1] (setting [5]) and in assay [2] (setting [6]) were less than 4 µg/mL and greater than 4 µg/mL, respectively.
For `CN(C)c1cc(C#Cc2ccccn2)c(O)c2c1C[C@H]1C[C@H]3[C@H](N(C)C)C(O)=C(C(N)=O)C(=O)[C@@]3(O)C(O)=C1C2=O` [BA], the MIC in assay [1] (setting [7]) and in assay [2] (setting [8]) was greater than 4 µg/mL throughout.
As to `CN(C)c1cc(CNC(=O)Nc2ccc3c(c2)OCO3)c(O)c2c1C[C@H]1C[C@H]3[C@H](N(C)C)C(O)=C(C(N)=O)C(=O)[C@@]3(O)C(O)=C1C2=O`, the MIC in assay [1] (setting [5]) is less than 4 µg/mL; in assay [2] (setting [6]), greater than 4 µg/mL.
`CN(C)c1cc(NCc2cc(F)cc(F)c2)c(O)c2c1C[C@H]1C[C@H]3[C@H](N(C)C)C(O)=C(C(N)=O)C(=O)[C@@]3(O)C(O)=C1C2=O`: the MIC in assay [1] (setting [5]) and in assay [2] (setting [6]) was greater than 4 µg/mL in each case.
Regarding `CN(C)[C@@H]1C(O)=C(C(N)=O)C(=O)[C@@]2(O)C(O)=C3C(=O)c4c(O)cccc4[C@@](C)(O)[C@H]3C[C@@H]12` [D], the MIC in assay [1] (setting [7]) and in assay [2] (setting [8]) was less than 4 µg/mL each time.
`CN(C)[C@@H]1C(O)=C(C(N)=O)C(=O)[C@@]2(O)C(O)=C3C(=O)c4c(O)c(CN5CCCCC5)cc(-c5ccccn5)c4C[C@H]3C[C@@H]12`: the MIC in assay [1] (setting [5]) was less than 4 µg/mL; in assay [2] (setting [6]), greater than 4 µg/mL.
Take `CC(=O)c1cc(I)c(O)c2c1C[C@H]1C[C@H]3[C@H](N(C)C)C(O)=C(C(N)=O)C(=O)[C@@]3(O)C(O)=C1C2=O` [JW]: the MIC in assay [1] (setting [7]) and in assay [2] (setting [8]) was greater than 4 µg/mL throughout.
On to `CN(C)c1cc(CNc2nc(-c3ccc(F)cc3)co2)c(O)c2c1C[C@H]1C[C@H]3[C@H](N(C)C)C(O)=C(C(N)=O)C(=O)[C@@]3(O)C(O)=C1C2=O`, for which the MIC in assay [1] (setting [5]) and in assay [2] (setting [6]) was greater than 4 µg/mL in each case.
In the case of `CN(C)[C@H]1C(O)=C(C(N)=O)C(=O)[C@@]2(O)C(O)=C3C(=O)c4c(O)ccc(-c5ccc(/N=C\NC(C)(C)C)cc5)c4C[C@H]3C[C@@H]12` [GU], the MIC in assay [1] (setting [7]) and in assay [2] (setting [8]) was less than 4 µg/mL each time.
For `CCc1cc(CNC(=O)N2CCOCC2)c2c(c1O)C(=O)C1=C(O)[C@]3(O)C(=O)C(C(N)=O)=C(O)[C@@H](N(C)C)[C@@H]3C[C@@H]1C2`, the MIC in assay [1] (setting [5]) and in assay [2] (setting [6]) was greater than 4 µg/mL each time.
For the compound `C[C@H]1c2ccc(CNCCC(F)(F)F)c(O)c2C(=O)C2=C(O)[C@]3(O)C(=O)C(C(N)=O)=C(O)[C@@H](N(C)C)[C@@H]3[C@@H](O)[C@@H]21`, the MIC in assay [1] (setting [5]) and in assay [2] (setting [6]) was less than 4 µg/mL in each case.
For `CC(C)NCc1cc(N(C)C)c2c(c1O)C(=O)C1=C(O)[C@]3(O)C(=O)C(C(N)=O)=C(O)[C@@H](N(C)C)[C@@H]3C[C@@H]1C2`, the results for the MIC in assay [1] (setting [5]) and in assay [2] (setting [6]) were less than 4 µg/mL and greater than 4 µg/mL, respectively.
Regarding `CC#Cc1ccc(O)c2c1C[C@H]1C[C@H]3[C@H](N(C)C)C(O)=C(C(N)=O)C(=O)[C@@]3(O)C(O)=C1C2=O`, the MIC in assay [1] (setting [3]) and in assay [2] (setting [4]) was less than 4 µg/mL in each case.
As to `CCCCOC(=O)Nc1cc(N(C)C)c2c(c1O)C(=O)C1=C(O)[C@]3(O)C(=O)C(C(N)=O)=C(O)[C@@H](N(C)C)[C@@H]3C[C@@H]1C2`, the MIC in assay [1] (setting [5]) and in assay [2] (setting [6]) was less than 4 µg/mL each time.
For the compound `COc1ccc(OC(=O)Nc2ccc(-c3ccc(O)c4c3C[C@H]3C[C@H]5[C@@H](N(C)C)C(O)=C(C(N)=O)C(=O)[C@@]5(O)C(O)=C3C4=O)cc2)cc1` [GC], the MIC in assay [1] (read-out: Antibiotic Activity Gram +) and in assay [2] (read-out: Antibiotic Activity Gram −) was greater than 4 µg/mL in each case.
Consider `COC(=O)CCc1cccc(-c2ccc(O)c3c2C[C@H]2C[C@H]4[C@H](N(C)C)C(O)=C(C(N)=O)C(=O)[C@@]4(O)C(O)=C2C3=O)c1`, for which the MIC in assay [1] (setting [5]) is less than 4 µg/mL; in assay [2] (setting [6]), greater than 4 µg/mL.
In the same order, the values of `COc1ccc(-c2ccc(O)c3c2C[C@H]2C[C@H]4[C@H](N(C)C)C(O)=C(C(N)=O)C(=O)[C@@]4(O)C(O)=C2C3=O)cc1` [drawing 3425] are less than 4 µg/mL and less than 4 µg/mL.
